The target of data set [1] is T1, CYP3A4 in POPC Nanodiscs (Homo sapiens, UniProt P08684, S18F). Description: Product formation. As to conditions: binding intermediate with 1 substrate molecule bound; 37 C, pH 7.4. Format: biochemical.
Data set [2] has as its target T1, CYP3A4 in POPC Nanodiscs. Description: Substrate binding to CYP3A4 in Nanodiscs: UV-Vis spectral titration. As to conditions: for Fe^3+ Spin shift (fraction of high spin): 37 C.
In a further data set the target is CYP3A4 (Homo sapiens, UniProt P08684, S18F). Described as above. As to conditions: human, recombinant CYP3A4 in POPC Nanodiscs.
The target in data set [3] is T1, CYP3A4 in POPC Nanodiscs. Format: biochemical. As to conditions: mixture of ARVL and DND at constant molar ratio 2.9:1; one of each substrate bound.

Entries after “also recorded” stand apart in the source; their conditions may differ.

In the case of `CC(C)c1c(C(=O)Nc2ccccc2)c(-c2ccccc2)c(-c2ccc(F)cc2)n1CC[C@@H]1C[C@@H](O)CC(=O)O1` [ARVL, atorvastatin lactone], the Product formation rate at CYP3A4 in POPC Nanodiscs [1] was 13 [9.6 – 14.7] min^−1. For the same compound, the Kd is 1 µM on CYP3A4 in POPC Nanodiscs [2] and 22 µM at CYP3A4. Further, the “Fe^3+ Spin shift (fraction of high spin)” value at CYP3A4 in POPC Nanodiscs [2] (binding intermediate with 1 substrate molecule bound) is 22 [16 – 26] %; at CYP3A4 in POPC Nanodiscs [2] (binding intermediate with 2 substrate molecules bound), 62 [56 – 72] %. In addition, the “Rate of metabolism from the mixed intermediate” value on CYP3A4 in POPC Nanodiscs [3] was found to be 31 min⁻¹.

As for `CCCCc1oc2ccc(NS(C)(=O)=O)cc2c1C(=O)c1ccc(OCCCN(CCCC)CCCC)cc1` [DND, dronedarone], the Product formation rate at CYP3A4 in POPC Nanodiscs [1] is 2.5 [1.6 – 3.4] min^−1. Besides, the Kd at CYP3A4 was 3.6 µM. Also, the “Rate of metabolism from the mixed intermediate” value at CYP3A4 in POPC Nanodiscs [3] is listed as “No product of DND metabolism was detected; also recorded: completely inhibited”.

The Kd is the equilibrium constant for the complex coming apart.

These data come from article PMC5800941 (Biochemistry, 2017).
